# Tests used:
# [1] = biological target: T1, human recombinant histamine H1 receptor (Homo sapiens, UniProt P35367); assay: Histamine H1 radioligand binding ([3H]Pyrilamine); conditions: read-out: Histamine H1 Binding (1 μM), percent inhibition of specific binding; compound at 1 μM; 1.2 nM [3H]Pyrilamine
# T1 construct: expressed in transfected cells; host or cells: CHO-K1
# Method in brief: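 Human recombinant H1 receptor expressed in CHO-K1 cells, in 50 mM Tris-HCl pH 7.4 with 2 mM MgCl2, 100 mM NaCl, 250 mM sucrose. Non-specific binding defined with 1 μM pyrilamine; bound [3H]pyrilamine counted after filtration and washing. Values are percent inhibition of specific binding.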
# [2] = biological target: T2, human recombinant adrenergic α2C receptor (Homo sapiens, UniProt P18825); assay: Adrenergic α2C radioligand binding ([3H]MK-912); conditions: read-out: Adrenergic (0.1 μM) a2C, percent inhibition of specific binding; compound at 0.1 μM; 1 nM [3H]MK-912
# T2 construct: expressed in transfected cells; host or cells: insect Sf9 cells
# T2 sequence (P18825 1-462): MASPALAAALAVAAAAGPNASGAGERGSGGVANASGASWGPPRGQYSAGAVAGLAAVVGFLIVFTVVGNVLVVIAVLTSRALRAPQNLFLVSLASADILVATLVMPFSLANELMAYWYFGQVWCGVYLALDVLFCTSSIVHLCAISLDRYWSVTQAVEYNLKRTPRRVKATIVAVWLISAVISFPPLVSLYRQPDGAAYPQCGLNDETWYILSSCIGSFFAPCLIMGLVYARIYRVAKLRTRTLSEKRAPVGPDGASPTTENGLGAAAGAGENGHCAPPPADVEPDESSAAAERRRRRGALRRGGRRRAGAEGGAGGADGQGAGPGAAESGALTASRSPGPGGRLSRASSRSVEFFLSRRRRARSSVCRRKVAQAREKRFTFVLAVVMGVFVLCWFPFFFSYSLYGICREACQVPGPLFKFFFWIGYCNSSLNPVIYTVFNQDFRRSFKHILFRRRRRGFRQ
# Method in brief: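 Membranes from Sf9 cells expressing the human receptor, in 50 mM Tris-HCl pH 7.4 with 12.5 mM MgCl2 and 2 mM EDTA, incubated with compound and 1 nM [3H]MK-912 for 60 min at 25 °C. Non-specific binding defined with 10 μM WB-4101. Filter-bound radioactivity counted; percent inhibition of specific binding reported.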
# [3] = biological target: T3, human recombinant serotonin (5-Hydroxytryptamine) 5-HT5A receptor (Homo sapiens, UniProt P47898); assay: Serotonin 5-HT5A radioligand binding ([3H]LSD); conditions: compound at 0.1 μM; read-out: Inhibition of ligand binding, Serotonin 5-HT5A (percent inhibition of specific binding)
# T3 construct: expressed in transfected cells; host or cells: CHO-K1
# T3 sequence (P47898 whole entry): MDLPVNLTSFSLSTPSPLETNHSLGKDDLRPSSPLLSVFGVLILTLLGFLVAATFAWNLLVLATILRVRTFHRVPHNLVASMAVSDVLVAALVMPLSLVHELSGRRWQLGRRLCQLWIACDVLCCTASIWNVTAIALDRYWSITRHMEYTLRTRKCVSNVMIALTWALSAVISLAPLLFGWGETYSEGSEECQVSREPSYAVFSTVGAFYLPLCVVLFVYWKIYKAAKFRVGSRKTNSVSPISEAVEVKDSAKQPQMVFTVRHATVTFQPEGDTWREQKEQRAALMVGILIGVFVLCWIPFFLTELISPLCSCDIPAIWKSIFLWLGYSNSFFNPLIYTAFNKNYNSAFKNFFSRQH
# Procedure: Compounds of the invention were incubated with 1.7 nM [^3H]Lysergic acid diethylamide (LSD) for 60 min at 37° C. […] Receptor proteins were filtered and washed, the filters were counted to determine [^3H]LSD specifically bound.
# [4] = biological target: T4, rat adrenergic α1A receptor (Rattus norvegicus, UniProt P43140); assay: Adrenergic α1A radioligand binding ([3H]Prazosin); conditions: read-out: Adrenergic (0.1 μM) a1A, percent inhibition of specific binding; compound at 0.1 μM; 0.25 nM [3H]Prazosin
# T4 construct: rat adrenergic α1A receptor obtained from Wistar Rat submaxillary glands; from tissue; host or cells: Wistar rat submaxillary glands
# T4 sequence (P43140 1-466): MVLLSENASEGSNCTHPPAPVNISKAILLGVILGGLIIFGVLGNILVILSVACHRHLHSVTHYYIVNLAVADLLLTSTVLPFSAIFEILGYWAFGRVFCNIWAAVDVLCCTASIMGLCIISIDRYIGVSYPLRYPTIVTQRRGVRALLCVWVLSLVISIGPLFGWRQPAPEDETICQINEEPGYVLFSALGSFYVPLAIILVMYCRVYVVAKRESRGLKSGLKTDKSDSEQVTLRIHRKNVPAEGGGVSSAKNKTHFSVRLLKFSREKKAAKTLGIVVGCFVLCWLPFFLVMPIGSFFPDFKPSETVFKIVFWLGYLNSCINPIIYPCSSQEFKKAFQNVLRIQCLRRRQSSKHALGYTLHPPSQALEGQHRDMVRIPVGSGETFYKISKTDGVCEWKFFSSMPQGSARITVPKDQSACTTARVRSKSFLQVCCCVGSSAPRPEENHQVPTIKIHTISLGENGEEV
# Method in brief: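 Wistar rat submaxillary gland receptor in 50 mM Tris-HCl pH 7.4 with 0.5 mM EDTA, incubated with compound and 0.25 nM [3H]Prazosin for 60 min at 25 °C.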
# [5] = biological target: T5, human recombinant serotonin (5-Hydroxytryptamine) 5-HT6 receptor (Homo sapiens, UniProt P50406); assay: Serotonin 5-HT6 radioligand binding ([3H]LSD); conditions: compound at 0.1 μM; read-out: Inhibition of ligand binding, Serotonin 5-HT6 (percent inhibition of specific binding)
# T5 construct: expressed in transfected cells; host or cells: HeLa
# T5 sequence (P50406 whole entry): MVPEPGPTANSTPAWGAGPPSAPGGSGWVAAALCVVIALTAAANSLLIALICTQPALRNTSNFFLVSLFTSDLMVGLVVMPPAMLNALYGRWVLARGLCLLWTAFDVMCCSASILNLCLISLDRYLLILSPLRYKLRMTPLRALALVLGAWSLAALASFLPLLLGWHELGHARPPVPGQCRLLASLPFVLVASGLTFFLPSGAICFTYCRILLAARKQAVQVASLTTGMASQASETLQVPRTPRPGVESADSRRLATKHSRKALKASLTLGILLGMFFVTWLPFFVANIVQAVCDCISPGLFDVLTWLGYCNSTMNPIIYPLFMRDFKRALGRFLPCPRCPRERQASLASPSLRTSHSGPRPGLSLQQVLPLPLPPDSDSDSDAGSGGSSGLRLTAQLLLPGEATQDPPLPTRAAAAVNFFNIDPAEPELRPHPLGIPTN
# Text: Receptor proteins were filtered and washed, the filters were then counted to determine [3H]LSD specifically bound.
# T1 sequence (P35367 whole entry): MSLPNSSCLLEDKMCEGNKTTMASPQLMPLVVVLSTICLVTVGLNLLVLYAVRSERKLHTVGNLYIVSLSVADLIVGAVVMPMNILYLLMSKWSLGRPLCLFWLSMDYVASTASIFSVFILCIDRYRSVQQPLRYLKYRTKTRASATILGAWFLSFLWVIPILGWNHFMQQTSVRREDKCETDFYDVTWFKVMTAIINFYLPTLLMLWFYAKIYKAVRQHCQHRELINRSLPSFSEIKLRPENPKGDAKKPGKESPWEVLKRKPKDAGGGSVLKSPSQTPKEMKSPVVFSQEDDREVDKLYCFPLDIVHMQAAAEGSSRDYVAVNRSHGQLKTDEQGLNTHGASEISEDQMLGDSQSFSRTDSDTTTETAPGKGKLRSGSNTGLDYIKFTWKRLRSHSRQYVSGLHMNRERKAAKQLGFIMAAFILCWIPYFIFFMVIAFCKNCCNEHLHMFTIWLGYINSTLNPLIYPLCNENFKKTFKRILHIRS
Structure (SMILES),inhibition at 1 µM [1],inhibition at 0.1 µM [2],inhibition at 0.1 µM [3],inhibition at 0.1 µM [4],inhibition at 0.1 µM [5]
Cc1ccc2c(c1)c1c(n2-c2cscc2-c2cc3ccccc3s2)CCN(C)C1 [Compound No. 151],11%,52%,102%,64%,28%
Cc1ccc2c(c1)c1c(n2-c2cscc2-c2cnc(N(C)C)nc2)CCN(C)C1 [Compound 40],15%,-17%,76%,43%,19%
